These results are taken from US5886178A, “3-aroylbenzylpyridazinone derivatives” (Syntex (U.S.A.) Inc., priority 1997, dated 1999).

The target of one experiment is COX I (Homo sapiens, UniProt P23219). The experiment can be described thus: Inhibition of COX I in vitro, partially purified enzyme, radiometric assay. The format is biochemical. Set-up: made in house. As to conditions: 20 micromolar arachidonic acid. As for the experimental part:
(§1) The COX I and COX II inhibitory activity of compounds of this invention in vitro was determined using partially purified COX I and COX II enzymes, prepared as described in J. Barnett et al, Biochim. Biophys.
(§2) COX I and COX II samples were diluted with Tris-HCl buffer (50 mM Tris-HCl, pH 7.9) containing 2 mM EDTA and 10% glycerol and reconstituted by incubating first with 2 mM phenol for 5 minutes and then with 1 micromolar hematin for an additional 5 minutes. 125 μl of the reconstituted COX I or COX II enzyme were preincubated for 10 minutes at room temperature in a shaking water bath with the compounds of the invention dissolved in 2-15 μl of DMSO or the carrier vehicles (control samples). The enzyme reaction was initiated by adding 25 μl of 1-[14C]arachidonic acid (80,000-100,000 cpm/tube; 20 micromolar final concentration) and the reaction was allowed to continue for an additional 45 seconds. The reaction was terminated by adding 100 μl of 2N HCl and 750 μl water. An aliquot (950 μl) of the reaction mixture was loaded onto a 1 ml C18 Sep-Pak column (J. T. Baker, Phillipsburg, N.J.) which had been previously washed with 2-3 ml methanol and equilibrated with 5-6 ml distilled water. Oxygenated products were quantitatively eluted with 3 ml of acetonitrile/water/acetic acid (50:50:0.1, v/v) and the radioactivity in the eluate determined in a scintillation counter.

Experiment [1] has as its target T1, COX II (Homo sapiens, UniProt P35354).
T1 sequence (P35354 18-604): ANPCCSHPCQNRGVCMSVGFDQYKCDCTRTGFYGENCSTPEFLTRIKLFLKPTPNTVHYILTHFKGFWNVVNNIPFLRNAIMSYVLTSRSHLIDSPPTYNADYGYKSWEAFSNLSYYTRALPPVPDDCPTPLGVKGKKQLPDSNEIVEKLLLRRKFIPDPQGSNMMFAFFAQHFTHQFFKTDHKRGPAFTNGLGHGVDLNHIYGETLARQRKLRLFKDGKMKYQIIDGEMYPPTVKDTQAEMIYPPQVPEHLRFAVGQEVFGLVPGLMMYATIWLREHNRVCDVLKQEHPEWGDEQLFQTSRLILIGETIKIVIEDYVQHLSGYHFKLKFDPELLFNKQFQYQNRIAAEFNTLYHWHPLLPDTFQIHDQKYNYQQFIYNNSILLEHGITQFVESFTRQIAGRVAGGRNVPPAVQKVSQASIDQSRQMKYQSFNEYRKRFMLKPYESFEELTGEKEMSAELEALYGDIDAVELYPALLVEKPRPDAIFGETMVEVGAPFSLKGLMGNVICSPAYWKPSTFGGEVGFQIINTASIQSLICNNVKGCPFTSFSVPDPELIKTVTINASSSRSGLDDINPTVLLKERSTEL
The experiment can be described thus: Inhibition of COX II in vitro, partially purified enzyme, radiometric assay. The format is biochemical. Set-up: made in house. As to conditions: 20 micromolar arachidonic acid. As for the experimental part: as §1, §2

The nature of experiment [2]: Carrageenan-induced paw edema in the rat (anti-inflammatory activity). Type of experiment: in vivo. As to conditions: 3 h, 10 mg/Kg, oral, female rats, read-out: % inhibition of increase in hind paw weight. As for the experimental part:
The anti-inflammatory activity of compounds of this invention was determined by measuring the inhibition of carrageenan-induced paw edema in the rat, using a modification of the method described in Winter C. k et al (1962) "Carrageenan-Induced Edema in Hind Paw of the Rat as an Assay for Anti-inflammatory Drugs". Proc. Soc. Exp. Biol. Med. 111: 544-547. This assay has been used as a primary in vivo screen for anti-inflammatory activity of most NSAIDs, and is considered predictive of human efficacy. Briefly, test materials were administered orally to female rats in a volume of 1 ml prepared as solutions or suspensions in an aqueous vehicle containing 0.9% NaCl, 0.5% sodium carboxymethyl-cellulose, 0.4% polysorbate 80, 0.9% benzyl alcohol and 97.3% distilled water. Control rats received vehicle alone. After 1 hr 0.05 ml of a 0.5% solution of Carrageenan (Type IV Lambda, Sigma Chemical Co.) in 0.9% saline was injected into the subplantar region of the right hind paw. Three hours later the rats were euthanized in a carbon dioxide atmosphere; hind paws were removed by severing at the tatso-crural joint; and the left and right paws were weighed. The increase in weight of the right paw over the left paw was obtained for each animal and the mean increases were calculated for each group. The anti-inflammatory activity of the test materials is expressed as the percent inhibition of the increase in hind paw weight of the test group relative to the vehicle-dosed control group.
The anti-inflammatory activities (expressed as % inhibition) of some of the compounds of the invention were: […]
(In general: Carrageenan injected into the paw causes an acute inflammation.)

The target in experiment [3] is T1, COX II. The experiment can be described thus: Inhibition of COX II in a cell based assay (human foreskin fibroblasts, PGE2 ELISA). Also noted: host or cells: primary human foreskin fibroblasts (HFF), induced with PMA and human interleukin-1. As to conditions: human foreskin fibroblasts (HFF). As for the experimental part: The COX I and COX II inhibitory activity of compounds of this invention in a cell based assay was determined as described below.
The inhibitory activity of test compounds against cell associated COX-2 was measured using primary cultures of human foreskin fibroblasts (HFF). HFF cultures were obtained from ATCC, grown in DMEM medium (Gibco) and used between 13-30 passages. Cells were plated in 96-well microtiter plates at a density of 6-8×10^4 cells/well in DMEM containing 10% fetal calf serum (Sigma) and cultured at 37° C. until they became confluent. The medium was removed and the cells were washed once with PBS. COX-2 activity was induced by incubating the cells with fresh DMEM containing 0.1 μM phorbol 12-myristate 13-acetate (PMA, Sigma) and 1ng/ml of human interleukin-1 (Sigma) at 37° C. After 16 h the medium was removed and the cells were washed twice with phosphate buffered saline (PBS, Gibco). 200 μl/well of fresh medium containing desired concentrations of the test compounds in DMSO, or the carrier vehicle (control wells) was added and the cells incubated at 37° C. for 30 minutes; after which 5 μM calcium ionophore A23187 (Sigma) was added and the incubation was continued for an additional 10 minutes. The reaction was terminated by transferring the plates to ice. The culture supernatants were transferred and appropriately diluted, and the amount of prostaglandin E2 (PGE2) present in each supernatant was quantitated using an ELISA kit (Cayman Chemicals).
The COX I and COX II inhibitory activities in the cell based assay (expressed as IC50) of some compounds of the invention were: […]
For orientation: ELISA stands for enzyme-linked immunosorbent assay.

Structures are written as SMILES.

Chain of COX I (P23219 24-599): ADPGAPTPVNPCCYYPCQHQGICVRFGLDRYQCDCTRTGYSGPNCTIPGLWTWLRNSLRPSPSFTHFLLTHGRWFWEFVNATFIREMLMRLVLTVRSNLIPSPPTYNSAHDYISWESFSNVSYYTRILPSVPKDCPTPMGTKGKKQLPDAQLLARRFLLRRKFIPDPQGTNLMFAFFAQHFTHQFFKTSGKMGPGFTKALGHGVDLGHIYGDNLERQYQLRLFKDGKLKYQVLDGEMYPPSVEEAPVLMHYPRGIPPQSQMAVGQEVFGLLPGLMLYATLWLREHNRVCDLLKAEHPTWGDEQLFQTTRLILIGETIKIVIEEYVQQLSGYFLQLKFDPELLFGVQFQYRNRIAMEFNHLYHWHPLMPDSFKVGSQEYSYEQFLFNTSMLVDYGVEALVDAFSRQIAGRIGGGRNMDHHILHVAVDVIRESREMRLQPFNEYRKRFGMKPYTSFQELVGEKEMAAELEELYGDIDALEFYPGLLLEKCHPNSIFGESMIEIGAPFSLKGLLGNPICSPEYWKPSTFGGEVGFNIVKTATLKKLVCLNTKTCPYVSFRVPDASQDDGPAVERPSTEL

As usually defined, the IC50 is the concentration that gives 50% inhibition. As to `COc1ccc(C(=O)c2cccc(Cc3ccc(=O)[nH]n3)c2C)cc1` [Cpd 11, 6-[3-(4-methoxybenzoyl)-2-methylbenzyl]-2H-pyridazin-3-one], the concentration for half-maximal inhibition (IC50) was determined as 391 µM on COX I, 1.8 µM against COX II [1] and 2 µM against COX II [3]. For the same compound, in experiment [2], the inhibition in vivo at 10 mg/kg turned out to be 44%.
